Read-outs that look alike come from different tables or passages of the source.
Tests used:
osteosarcoma U2OS cells = test: Induction of cytoplasmic vacuoles (enlarged lysosomes) in U2OS cells, light microscopy; type: cell-based, human; conditions: for Concentration to induce LC3-II accumulation, inhibit proliferation or viability relative to concentration to observe vacuolization: same U2OS cells
Excerpt: Vehicle is the concentration of DMSO that was introduced by addition of compounds.
These effects are dependent on the compound selected, its concentration and the length of time cells are exposed to the compound.
(§1) Cells were obtained from the American Type Culture Collection. BORCS5-KO HeLa cells have been described previously. Osteosarcoma U2OS were routinely seeded in 6-well plates (0.5×10^5 cells/well) and cultured in Dulbecco's Modified Eagle's medium supplemented with L-Glutamine, 4.5 g/L Glucose, Sodium Pyruvate, Phenol Red, and either heat-inactivated or normal 10% fetal calf serum at 37° C. in 5% CO2. Approximately 15-19 hours later, the indicated compound was added in 1:1000 dilutions. Results were the same using either heat-inactivated or normal fetal calf serum. Melanoma A375, embryonic kidney 293T and human foreskin fibroblast Hs27 cells were cultured in the same medium, except that cells were seeded into 12-well plates at 10^3 cells/well.
Phase contrast photographs were taken on an Olympus CKX41 microscope. Confocal photographs were taken on a Leica TCS-SP5II. For immunofluorescence microscopy, the cells were fixed in 4% paraformaldehyde (Electron Microscopy Sciences, 15714) in PBS for 12 min, permeabilized with 0.2% Triton X-100 in PBS for 10 min, and blocked in 0.2% BSA (Sigma-Aldrich, A7030) in PBS for 30 min at 37° C. For endogenous LC3 staining, cells were permeabilized in methanol for 20 min at −20° C. after the paraformaldehyde fixation. The cells were sequentially incubated with primary antibodies (LAMP1: Developmental Studies Hybridoma Bank; LC3 and LAMTOR4: Cell Signaling Technology; FLAG epitope: Sigma-Aldrich) and secondary antibodies conjugated to Alexa Fluor dyes (Life Technologies) diluted with 0.2% BSA in PBS for 30 min at 37° C. Coverslips were mounted on glass slides using Fluoromount-G (Electron Microscopy Sciences, 17984-24). Cells were imaged using a Zeiss LSM880 with AiryScan confocal microscope (Carl Zeiss AG, Oberkochen, Germany) or a Leica TCS-SP5II. The final composite images were created and properly analyzed for lysosomal size examination using ImageJ (NIH).

melanoma A375 cells [1] = test: A375 cell proliferation (crystal violet plate assay); type: cell-based, human
[2] = test system: breast adenocarcinoma cells; test: Viability of breast adenocarcinoma cells; type: cell-based; conditions: Homo sapiens
Procedure: (§2) FIG. 18 summarizes results from 13 human cell lines. All cells were seeded at the same cell density in a rich culture medium and assayed under identical conditions. Compound 1 efficacy is the ratio of cell viability with compound 1 to cell viability with chloroquine derivatives.

embryonic kidney cells = test: Viability of embryonic kidney cells; type: cell-based; conditions: Homo sapiens
Procedure: as §2
as §1, with “Results were the same using either heat-inactivated or normal fetal calf serum.” left out

[3] = test system: human foreskin fibroblasts; test: Proliferation/viability of human foreskin fibroblasts; type: cell-based; conditions: Fibroblast
Procedure: Concentration of each compound in the plate assay is indicated below the compound 1 plate.
as §1, with “Results were the same using either heat-inactivated or normal fetal calf serum.” left out

melanoma A375 cells [4] = test: Cytoplasmic vacuolization of A375 cells; type: cell-based, human
PIKFYVE = biological target: T1, PIKFYVE (Homo sapiens, UniProt Q9Y2I7); test: DiscoverX KINOMEscan dissociation constant; type: binding
T1 construct: purchased DiscoverX (KINOMEscan service, San Diego, Calif.)
Procedure: Each kinase was tagged with a unique DNA sequence that allowed the amount of protein bound to the solid support to be quantified by PCR. The top three targets for compound 1 were PIKFYVE, PIP4K2C and MTOR. […] Dissociation constants (Kd) were determined from the amount of kinase captured on the solid support as a function of the test compound concentration (nM) on a log10 scale. Mean Kd values (±range) are given for each compound. The ratio of PIP4K2C to PIKFYVE indicates the relative specificity for these two kinases.
To address this hypothesis, a panel of 468 human kinases were screened for their ability to bind compound 1. […] The top two candidates were PIKFYVE (phosphoinositide kinase FYVE-type zinc finger containing) and PIP4K2C (phosphatidylinositol-5-phosphate 4-kinase). PIKFYVE is a kinase that is essential for mouse development (49) and that prevents endosome enlargement and cytoplasmic vacuolization (50, 51). PIP4K2C is a kinase that is not essential for mouse growth and viability, but it is essential for the immune system (52), mTORC1 signaling (53), and regulation of autophagy (54). The third candidate was MTOR, a kinase that regulates autophagy (55). Therefore, the binding constants (Kd) for all five members of the compound 1-family were determined for each of these three proteins from two independent titration curves, as shown for compound 1.

[5] = test system: LC3-II and p62 in U2OS cells; test: Accumulation of autophagosome markers LC3-II and p62, Western immuno-blotting; type: cell-based, human; conditions: U2OS cells
Procedure: Cells were cultured for 4 hrs before total cell extracts were subjected to Western immuno-blotting for LC3, p62 and β-actin. Blot was developed with film. […] (C) U2OS cells were cultured for the times indicated in the presence of 1.2 μM compound 1 to produce 80% of the maximum observed in FIG. 10A. Total cell extracts were assayed at the times indicated. […] All blots were stained with Ponceau S […].
Total cell lysates were prepared (in 4× dye). Proteins were fractionated at 200V in a NuPAGE 4-12% bis-tris polyacrylamide gel (NP0323, Novex) using NuPAGE MES running buffer (NP0002, Novex) and then stained with PageBlue (24260, Thermo Scientific) in order to quantify the relative amount of histones in each sample. […] Proteins were wet-transferred onto nitrocellulose membranes (162-0112, Bio-Rad) using NuPAGE transfer buffer (NP-0006-1, Novex) for 1 hour at 30V. Membranes were then stained with dilute Ponceau S solution, blocked in 5% milk for 30 minutes at room temperature, and incubated overnight at 4° C. in primary antibody. Membranes were washed with phosphate buffered saline with tween 20 (PBST) three times for 10 min. each, incubated with secondary antibodies in 5% milk for 1 hour, washed three times with PBST again, covered in ECL (SuperSignal West Pico chemiluminescent substrate, 34080, Thermo Scientific) and exposed to film (HyBlot ES, E3218, Denville Scientific).

T1 sequence (Q9Y2I7 whole entry): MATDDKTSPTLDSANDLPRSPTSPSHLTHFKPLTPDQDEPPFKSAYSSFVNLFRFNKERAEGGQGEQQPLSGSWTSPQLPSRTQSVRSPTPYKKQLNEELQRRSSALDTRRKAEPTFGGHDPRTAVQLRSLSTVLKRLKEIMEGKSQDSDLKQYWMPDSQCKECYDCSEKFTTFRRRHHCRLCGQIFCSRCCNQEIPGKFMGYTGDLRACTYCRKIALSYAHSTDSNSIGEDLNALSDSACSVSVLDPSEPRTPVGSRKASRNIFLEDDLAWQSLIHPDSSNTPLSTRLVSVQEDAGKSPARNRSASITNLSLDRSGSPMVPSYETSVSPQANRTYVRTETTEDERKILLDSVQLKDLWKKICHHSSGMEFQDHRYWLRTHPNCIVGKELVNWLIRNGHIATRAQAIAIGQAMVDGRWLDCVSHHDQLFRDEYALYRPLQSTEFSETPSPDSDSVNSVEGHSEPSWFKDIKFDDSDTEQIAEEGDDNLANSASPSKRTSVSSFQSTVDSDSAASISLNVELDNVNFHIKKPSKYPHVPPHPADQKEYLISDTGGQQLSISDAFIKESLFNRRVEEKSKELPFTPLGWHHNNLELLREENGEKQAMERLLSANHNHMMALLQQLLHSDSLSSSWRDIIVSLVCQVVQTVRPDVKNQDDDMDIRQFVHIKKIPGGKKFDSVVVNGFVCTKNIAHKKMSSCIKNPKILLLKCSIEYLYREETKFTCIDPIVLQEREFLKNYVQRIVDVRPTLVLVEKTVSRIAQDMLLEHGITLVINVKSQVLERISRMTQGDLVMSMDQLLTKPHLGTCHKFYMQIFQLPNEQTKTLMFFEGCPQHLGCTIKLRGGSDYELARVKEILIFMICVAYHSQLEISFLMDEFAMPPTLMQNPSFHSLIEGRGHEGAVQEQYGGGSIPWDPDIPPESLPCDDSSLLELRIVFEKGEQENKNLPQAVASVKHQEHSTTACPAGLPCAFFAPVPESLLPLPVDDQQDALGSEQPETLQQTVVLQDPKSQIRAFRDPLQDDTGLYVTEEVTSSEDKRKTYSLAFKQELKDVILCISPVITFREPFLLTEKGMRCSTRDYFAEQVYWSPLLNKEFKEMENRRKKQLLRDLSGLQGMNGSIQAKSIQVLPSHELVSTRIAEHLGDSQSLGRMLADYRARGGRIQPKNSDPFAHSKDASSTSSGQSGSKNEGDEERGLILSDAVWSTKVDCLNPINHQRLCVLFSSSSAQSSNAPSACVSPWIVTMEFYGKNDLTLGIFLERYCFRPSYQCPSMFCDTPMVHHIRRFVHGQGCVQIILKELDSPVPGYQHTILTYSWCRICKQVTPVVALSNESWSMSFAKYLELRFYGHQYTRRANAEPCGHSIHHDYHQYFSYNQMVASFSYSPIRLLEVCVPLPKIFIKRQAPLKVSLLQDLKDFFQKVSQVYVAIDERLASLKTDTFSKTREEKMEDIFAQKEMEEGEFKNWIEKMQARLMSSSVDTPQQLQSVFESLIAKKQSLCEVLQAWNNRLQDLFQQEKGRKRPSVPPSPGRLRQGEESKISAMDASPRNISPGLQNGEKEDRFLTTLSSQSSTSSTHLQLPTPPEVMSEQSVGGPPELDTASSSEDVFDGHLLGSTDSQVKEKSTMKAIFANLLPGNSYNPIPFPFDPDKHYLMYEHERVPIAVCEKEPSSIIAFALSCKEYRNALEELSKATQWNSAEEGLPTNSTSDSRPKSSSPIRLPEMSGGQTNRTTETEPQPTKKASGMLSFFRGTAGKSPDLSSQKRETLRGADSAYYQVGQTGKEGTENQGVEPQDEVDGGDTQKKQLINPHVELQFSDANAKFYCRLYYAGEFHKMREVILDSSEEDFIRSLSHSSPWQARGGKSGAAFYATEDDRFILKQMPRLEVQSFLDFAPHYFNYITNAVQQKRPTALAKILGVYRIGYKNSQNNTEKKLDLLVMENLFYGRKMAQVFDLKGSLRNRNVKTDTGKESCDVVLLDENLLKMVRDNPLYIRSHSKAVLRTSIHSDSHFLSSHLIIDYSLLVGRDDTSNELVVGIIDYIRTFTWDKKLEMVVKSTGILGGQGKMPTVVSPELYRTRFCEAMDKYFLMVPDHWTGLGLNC

C(=N\Nc1cc(N2CCOCC2)nc(N2CCOCC2)n1)/c1ccccc1 [compound 5]
Concentration to induce LC3-II accumulation, inhibit proliferation or viability relative to concentration to observe vacuolization (osteosarcoma U2OS cells): about 15 fold

Fc1ccc(Nc2nc(N3CCOCC3)nc(N3CCOCC3)n2)cc1Cl [compound 2]
Concentration to induce LC3-II accumulation, inhibit proliferation or viability relative to concentration to observe vacuolization (osteosarcoma U2OS cells): two to three-fold

Nc1ccc(C(=O)Nc2cccc(-c3nc(N4CCOCC4)c4oc5ncccc5c4n3)c2)cn1 [YM201636]
Inhibition of proliferation of melanoma A375 cells (melanoma A375 cells [1]): effective

CCN(CCO)CCCC(C)Nc1ccnc2cc(Cl)ccc12 (stereo not shown) [HCQ, hydroxychloroquine]
EC50 ([2]; breast adenocarcinoma cells, read-out: EC50): > 10 µM
EC50 (embryonic kidney cells; embryonic kidney cells, read-out: EC50): > 10 µM
EC50 ([3]; human foreskin fibroblasts, read-out: EC50): > 10 µM
Cytoplasmic vacuolization of A375 cells (melanoma A375 cells [4]): not observed
Inhibition of proliferation of melanoma A375 cells (melanoma A375 cells [1]): inhibited A375 cell proliferation

Cc1cccc(/C=N/Nc2cc(N3CCOCC3)nc(OCCc3ccccn3)n2)c1 [Apilimod]
Inhibition of proliferation of melanoma A375 cells (melanoma A375 cells [1]): effective

CCN(CC)CCCC(C)Nc1ccnc2cc(Cl)ccc12 (stereo not shown) [CQ, chloroquine]
EC50 [2]: > 10 µM
EC50 (embryonic kidney cells): > 10 µM
EC50 ([3]; Homo sapiens): > 10 µM
Cytoplasmic vacuolization of A375 cells (melanoma A375 cells [4]): not observed
Inhibition of proliferation of melanoma A375 cells (melanoma A375 cells [1]): inhibited A375 cell proliferation

CCc1ccc(Nc2nc(N3CCOCC3)nc(N3CCOCC3)n2)cc1 [compound 3]
Concentration to induce LC3-II accumulation, inhibit proliferation or viability relative to concentration to observe vacuolization (osteosarcoma U2OS cells): two to three-fold
Kd (PIKFYVE; mean of two independent titration curves): 0.016 µM

CO/C1=C\C(C)=C\[C@@H](C)[C@@H](O)[C@@H](C)C/C(C)=C/C=C/[C@H](OC)[C@@H]([C@@H](C)[C@@H](O)[C@H](C)[C@@]2(O)C[C@@H](O)[C@H](C)[C@@H](C(C)C)O2)OC1=O [BafA1, Bafilomycin-A1, reference compound]
Induction of vacuoles / enlarged lysosomes (osteosarcoma U2OS cells; U2OS cells): did not induce formation of enlarged lysosomes
Effect on vacuole accumulation induced by the compounds of the invention (osteosarcoma U2OS cells; U2OS cells, BafA1 together with compound 1): prevented induction of vacuole accumulation
Accumulation of LC3-II [5]: induced the accumulation of LC3-II

Ic1cccc(/C=N/Nc2nc(N3CCOCC3)nc(N(c3ccccc3)c3ccccc3)n2)c1 [Vacuolin]
Inhibition of proliferation of melanoma A375 cells (melanoma A375 cells [1]): effective

Cc1cccc(/C=N/Nc2cc(N3CCOCC3)nc(N3CCOCC3)n2)c1 [compound 4]
Concentration to induce LC3-II accumulation, inhibit proliferation or viability relative to concentration to observe vacuolization (osteosarcoma U2OS cells): about 10 fold
Standing within the family for PIKFYVE binding (PIKFYVE): the most specific

From patent publication US11471460B2, “Autophagy modulators for use in treating cancer” (The United States of America,as represented by the …, priority 2017, dated 2022)
